Measured values reported in the CheMixHub viscosity set.
Values joined by “and” are separate entries in the source; they are usually repeats but may differ in a detail not shown here. Equal entries are not always repeated.

Assay: xn = mol fraction of the nth substance listed

COCCO + O
viscosity
Settings	101 kPa	101.33 kPa
298.15 K, x1 = 0.01	0.9988 mPa·s	–
298.15 K, x1 = 0.025	1.169 mPa·s	–
298.15 K, x1 = 0.05	1.464 mPa·s	–
298.15 K, x1 = 0.056	1.516 mPa·s	–
298.15 K, x1 = 0.075	1.755 mPa·s	–
298.15 K, x1 = 0.0834	–	1.894 mPa·s
298.15 K, x1 = 0.1	2.023 mPa·s	–
298.15 K, x1 = 0.136	2.365 mPa·s	–
298.15 K, x1 = 0.1366	–	2.365 mPa·s
298.15 K, x1 = 0.15	2.475 mPa·s	2.442 mPa·s
298.15 K, x1 = 0.2	2.766 mPa·s	–
298.15 K, x1 = 0.2131	–	2.768 mPa·s
298.15 K, x1 = 0.25	2.908 mPa·s and 2.871 mPa·s and 2.871 mPa·s	–
298.15 K, x1 = 0.2601	–	2.876 mPa·s
298.15 K, x1 = 0.262	2.885 mPa·s	–
298.15 K, x1 = 0.3	2.942 mPa·s	–
298.15 K, x1 = 0.3005	–	2.904 mPa·s
298.15 K, x1 = 0.3558	–	2.886 mPa·s
298.15 K, x1 = 0.4	2.833 mPa·s	–
298.15 K, x1 = 0.4352	–	2.751 mPa·s
298.15 K, x1 = 0.48	2.582 mPa·s and 2.582 mPa·s	–
298.15 K, x1 = 0.486	2.575 mPa·s	–
298.15 K, x1 = 0.5	2.606 mPa·s	–
298.15 K, x1 = 0.5001	–	2.616 mPa·s
298.15 K, x1 = 0.5219	–	2.571 mPa·s
298.15 K, x1 = 0.6	2.35 mPa·s	–
298.15 K, x1 = 0.6161	–	2.367 mPa·s
298.15 K, x1 = 0.6806	–	2.232 mPa·s
298.15 K, x1 = 0.7	2.102 mPa·s	–
298.15 K, x1 = 0.72	2.115 mPa·s and 2.115 mPa·s	–
298.15 K, x1 = 0.7514	–	2.076 mPa·s
298.15 K, x1 = 0.8	1.874 mPa·s	–
298.15 K, x1 = 0.8181	–	1.93 mPa·s
298.15 K, x1 = 0.85	1.772 mPa·s	–
298.15 K, x1 = 0.8844	–	1.786 mPa·s
298.15 K, x1 = 0.9	1.681 mPa·s	–
298.15 K, x1 = 0.95	1.606 mPa·s	–
298.15 K, x2 = 0.1049	–	1.671 mPa·s
298.15 K, x2 = 0.2062	–	1.86 mPa·s
298.15 K, x2 = 0.3055	–	2.064 mPa·s
298.15 K, x2 = 0.3977	–	2.288 mPa·s
298.15 K, x2 = 0.4976	–	2.538 mPa·s
298.15 K, x2 = 0.6002	–	2.755 mPa·s
298.15 K, x2 = 0.6964	–	2.866 mPa·s
298.15 K, x2 = 0.8004	–	2.68 mPa·s
298.15 K, x2 = 0.9005	–	1.989 mPa·s
308.15 K, x1 = 0.0461	–	1.143 mPa·s
308.15 K, x1 = 0.0623	–	1.242 mPa·s
308.15 K, x1 = 0.0881	–	1.52 mPa·s
308.15 K, x1 = 0.1239	–	1.829 mPa·s
308.15 K, x1 = 0.16	–	1.803 mPa·s
308.15 K, x1 = 0.1871	–	2.124 mPa·s
308.15 K, x1 = 0.2131	–	2.067 mPa·s
308.15 K, x1 = 0.2442	–	2.284 mPa·s
308.15 K, x1 = 0.25	2.142 mPa·s and 2.142 mPa·s	–
308.15 K, x1 = 0.2601	–	2.149 mPa·s
308.15 K, x1 = 0.2938	–	2.341 mPa·s
308.15 K, x1 = 0.3005	–	2.164 mPa·s
308.15 K, x1 = 0.326	–	2.342 mPa·s
308.15 K, x1 = 0.3558	–	2.15 mPa·s
308.15 K, x1 = 0.3709	–	2.319 mPa·s
308.15 K, x1 = 0.4014	–	2.284 mPa·s
308.15 K, x1 = 0.4352	–	2.077 mPa·s
308.15 K, x1 = 0.4504	–	2.217 mPa·s
308.15 K, x1 = 0.5001	–	2.001 mPa·s
308.15 K, x1 = 0.5219	–	1.96 mPa·s
308.15 K, x1 = 0.6161	–	1.818 mPa·s
308.15 K, x1 = 0.6806	–	1.726 mPa·s
308.15 K, x1 = 0.72	1.68 mPa·s and 1.68 mPa·s	–
308.15 K, x1 = 0.7514	–	1.624 mPa·s
308.15 K, x1 = 0.8844	–	1.443 mPa·s
308.15 K, x2 = 0.1034	–	1.452 mPa·s
308.15 K, x2 = 0.1923	–	1.477 mPa·s
308.15 K, x2 = 0.2978	–	1.629 mPa·s
308.15 K, x2 = 0.3944	–	1.768 mPa·s
308.15 K, x2 = 0.5527	–	1.918 mPa·s
308.15 K, x2 = 0.7415	–	2.002 mPa·s
308.15 K, x2 = 0.8372	–	1.768 mPa·s
308.15 K, x2 = 0.956	–	1.085 mPa·s
313.15 K, x1 = 0.25	1.842 mPa·s and 1.842 mPa·s	–
313.15 K, x1 = 0.48	1.805 mPa·s and 1.805 mPa·s	–
313.15 K, x1 = 0.72	1.517 mPa·s and 1.517 mPa·s	–
318.15 K, x1 = 0.0251	–	0.737 mPa·s
318.15 K, x1 = 0.0623	–	0.95 mPa·s
318.15 K, x1 = 0.15	–	1.325 mPa·s
318.15 K, x1 = 0.2131	–	1.505 mPa·s
318.15 K, x1 = 0.25	1.588 mPa·s and 1.588 mPa·s	–
318.15 K, x1 = 0.2601	–	1.585 mPa·s
318.15 K, x1 = 0.3005	–	1.626 mPa·s
318.15 K, x1 = 0.3558	–	1.655 mPa·s
318.15 K, x1 = 0.4352	–	1.653 mPa·s
318.15 K, x1 = 0.48	1.627 mPa·s and 1.627 mPa·s	–
318.15 K, x1 = 0.5001	–	1.615 mPa·s
318.15 K, x1 = 0.5219	–	1.602 mPa·s
318.15 K, x1 = 0.6161	–	1.513 mPa·s
318.15 K, x1 = 0.6806	–	1.444 mPa·s
318.15 K, x1 = 0.72	1.389 mPa·s and 1.389 mPa·s	–
318.15 K, x1 = 0.7514	–	1.36 mPa·s
318.15 K, x1 = 0.8181	–	1.281 mPa·s
318.15 K, x1 = 0.8844	–	1.191 mPa·s
323.15 K, x1 = 0.48	1.493 mPa·s and 1.493 mPa·s	–
323.15 K, x1 = 0.72	1.294 mPa·s and 1.294 mPa·s	–

N#C[S-].[Na+] + O
viscosity [mPa·s], 101.3 kPa
Settings	293.15 K	298.15 K	303.15 K	308.15 K	313.15 K	318.15 K	323.15 K
x1 = 0.000641	1.046	0.938	0.839	0.759	0.689	0.629	0.577
x1 = 0.0118	1.037	0.943	0.835	0.771	0.699	0.638	0.589
x1 = 0.01737	1.104	0.985	0.887	0.805	0.732	0.672	0.618
x1 = 0.03707	1.261	1.128	1.016	0.92	0.834	0.766	0.706
x1 = 0.05053	1.367	1.221	1.124	1.015	0.919	0.834	0.776
x1 = 0.07571	1.549	1.387	1.25	1.132	1.03	0.945	0.87
x1 = 0.09639	1.81	1.613	1.442	1.308	1.19	1.091	1.003
x1 = 0.1127	2.193	1.939	1.732	1.56	1.408	1.295	1.18
x1 = 0.1223	2.333	2.061	1.828	1.653	1.493	1.356	1.248
x1 = 0.1239	2.378	2.099	1.873	1.679	1.52	1.384	1.27
x1 = 0.1334	2.641	2.321	2.06	1.842	1.668	1.505	1.374
x1 = 0.1416	2.851	2.501	2.214	1.977	1.779	1.609	1.468
x1 = 0.1532	3.196	2.792	2.461	2.191	1.963	1.777	1.619
x1 = 0.1683	3.749	3.258	2.858	2.527	2.259	2.049	1.837
x1 = 0.1834	4.424	3.802	–	–	–	–	–
